According to publication PMC12435445, “Crown Ether–Peptide Rotaxanes” (Angewandte Chemie (International Ed. in English), 2025):

Experiment: Stability of rotaxane positional isomers to heating or standing, followed by 1H NMR
Type: physicochemical
Procedure: The properties of the 1:0:0‐, 0:1:0‐ and 0:0:1‐diastereomers of 24C8⊂16 were probed using a range of spectroscopic and spectrometric techniques. No change in the ^1H NMR spectra of the rotaxane positional isomers occurred upon heating at 70 °C in DMSO‐d6 for 2 h, or after prolonged periods at room temperature. […] When compared to the noninterlocked thread peptide 16; significant downfield shifts are observed for Hb in 1:0:0–24C8⊂16 (ΔδHb = +0.45 ppm), Hh in 0:1:0–24C8⊂16 (ΔδHh = +0.30 ppm) and Hq in 0:0:1–24C8⊂16 (ΔδHq = +0.21 ppm). The protons associated with the encapsulated glycine residue are also downshifted (protons Hf, Ho and Hu, in 1:0:0–24C8⊂16, 0:1:0–24C8⊂16 and 0:0:1–24C8⊂16, respectively). Substantial upfield shifts for the amide protons Ha, He, Hg, Hn (ΔδH = −0.78, −0.43, −0.40, and −0.49 ppm) in 1:0:0–24C8⊂16, Hg, Hn, Hp, and Ht in 0:1:0–24C8⊂16 (ΔδH = −0.26, −0.48, −0.45, and −0.44 ppm), and Hp, Ht and Hv (ΔδH = −0.33, −0.44, and −0.63 ppm) in 0:0:1–24C8⊂16 indicate that the crown ether also interacts with the amide group of the C‐adjacent residue. As in the tripeptide rotaxanes 24C8⊂4–14, the diastereotopic splitting for the encapsulated glycine methylene becomes more pronounced, as do the protons of the leucine residue (Hd), within 1:0:0–24C8⊂16. The presence of the macrocycle reduces the rotation of nearby amides within the compartment it occupies.

- change in the 1H NMR spectra (interconversion of positional isomers or dethreading of macrocycle) (heating at 70 °C in DMSO-d6 for 2 h): No change
- change in the 1H NMR spectra (interconversion of positional isomers or dethreading of macrocycle) (prolonged periods at room temperature): No change
Substance: Boc‐Leu‐Gly‐Trp‐Gly‐Tyr(TIPS)‐Gly‐Phe‐OMe [1:0:0–24C8⊂16, 24C8 crown ether–heptapeptide [2]rotaxane, ring on left‐hand glycine between Boc‐Leu and Trp of axle 16]
